Experimental data reported in PMC4368485 (Neuron, 2015).

What was measured:
[1] = test system: horizontal locomotor activity; assay: Locomotor activity; type: in vivo, rat; settings: at high doses IP; rats; cumulative 2 hr
latency to fall = assay: Rotorod test; type: in vivo, mouse; settings: mice, vehicle 140±13 sec
[2] = molecular target: rat GluN1-1a/GluN2B receptors (Rattus norvegicus, UniProt P35439+Q00960); settings: Table S6 ref Mott et al., 1998; cited from earlier work
[3] = estimated from the literature ref Yang et al., 2003, Nicholson et al., 2007; cited from earlier work

Sequence of rat GluN1-1a/GluN2B receptors (Q00960 27-1482, other chains not shown): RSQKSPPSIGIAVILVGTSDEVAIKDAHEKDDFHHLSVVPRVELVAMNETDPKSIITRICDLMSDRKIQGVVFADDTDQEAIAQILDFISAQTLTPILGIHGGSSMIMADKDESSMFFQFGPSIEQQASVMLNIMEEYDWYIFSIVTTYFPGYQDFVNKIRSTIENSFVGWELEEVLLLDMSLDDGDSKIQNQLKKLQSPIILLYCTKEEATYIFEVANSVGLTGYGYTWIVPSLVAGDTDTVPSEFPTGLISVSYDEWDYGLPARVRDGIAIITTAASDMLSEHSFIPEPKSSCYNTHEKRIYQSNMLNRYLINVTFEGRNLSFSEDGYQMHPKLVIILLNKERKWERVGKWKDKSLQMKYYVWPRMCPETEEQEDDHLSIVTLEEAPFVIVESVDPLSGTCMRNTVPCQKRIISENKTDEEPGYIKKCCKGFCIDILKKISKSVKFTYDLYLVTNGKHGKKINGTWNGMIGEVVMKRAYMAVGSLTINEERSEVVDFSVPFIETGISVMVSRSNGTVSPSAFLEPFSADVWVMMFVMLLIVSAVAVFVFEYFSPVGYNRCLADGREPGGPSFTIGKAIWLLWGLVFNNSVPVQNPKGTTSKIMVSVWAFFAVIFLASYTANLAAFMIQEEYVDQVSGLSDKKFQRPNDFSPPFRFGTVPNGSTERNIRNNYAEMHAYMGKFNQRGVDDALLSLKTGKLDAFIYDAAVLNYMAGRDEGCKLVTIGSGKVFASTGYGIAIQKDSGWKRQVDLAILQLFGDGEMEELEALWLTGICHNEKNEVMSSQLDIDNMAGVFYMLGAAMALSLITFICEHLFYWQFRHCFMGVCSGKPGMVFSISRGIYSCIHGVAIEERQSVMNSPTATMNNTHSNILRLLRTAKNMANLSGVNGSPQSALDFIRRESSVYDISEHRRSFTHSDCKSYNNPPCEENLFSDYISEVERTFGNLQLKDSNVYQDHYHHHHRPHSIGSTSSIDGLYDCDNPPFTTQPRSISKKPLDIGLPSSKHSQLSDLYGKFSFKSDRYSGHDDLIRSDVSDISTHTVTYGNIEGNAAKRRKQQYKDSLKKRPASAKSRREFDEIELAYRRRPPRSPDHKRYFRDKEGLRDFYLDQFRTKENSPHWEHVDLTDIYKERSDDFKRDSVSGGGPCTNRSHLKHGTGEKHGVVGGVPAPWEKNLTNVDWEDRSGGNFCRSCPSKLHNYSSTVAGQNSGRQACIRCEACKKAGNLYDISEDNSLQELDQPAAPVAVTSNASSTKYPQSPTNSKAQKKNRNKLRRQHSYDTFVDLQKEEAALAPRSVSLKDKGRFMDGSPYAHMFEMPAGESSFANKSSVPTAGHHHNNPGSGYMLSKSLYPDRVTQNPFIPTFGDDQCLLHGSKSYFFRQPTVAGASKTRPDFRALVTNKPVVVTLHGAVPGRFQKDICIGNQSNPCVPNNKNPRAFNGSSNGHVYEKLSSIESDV

CC(C(O)c1ccc(O)cc1)N1CCC(Cc2ccccc2)CC1 (centres unmarked) [ifenprodil]
effect on locomotor activity [1]: reduced | rotorod latency to fall (latency to fall; 30 mg/kg IP): 35 ± 6 s

(+)MK-801
rotorod latency to fall (latency to fall; 0.6 mg/kg IP): 3 ± 2 s

C[C@@H]([C@@H](O)c1ccc(O)cc1)N1CCC(O)(c2ccccc2)CC1 [CP-101,606]
pH sensitivity of inhibition [2]: lack substantial pH sensitivity | therapeutic ratio (TR) for neuroprotection [3]: ~ 4
